Measured values from patent publication US20250051820A1 (priority 2021, published 2025).
Like-named read-outs stand apart in the source and are kept apart here.

Columns and labels:
High Five cells [1] = conditions: for VP1 band intensity (relative value): MOI=0.1, day 4 supernatant, negative control = 100%
Description: High Five cells (Thermo Fisher Scientific, Express Five™ SFM) were seeded at a seeding concentration of 1×10^6 cells/mL so as to satisfy a culture scale of 30 mL.

High Five cells [2] = tested on: High Five cells
Description: High Five cells (Thermo Fisher Scientific, Express Five™ SFM) were seeded at a seeding concentration of 1×10^6 cells/mL so as to satisfy a culture scale of 30 mL. Twenty-four hours after the initiation of culture, calcium chloride was added so as to increase a final concentration by 1, 10 and 100 mM. Here, a calcium chloride-free group was used as a control. From day 3 to 5, the cell culture solution was sampled and stained with a 0.2% trypan blue solution. The numbers of viable cells and dead cells were counted by a hemocytometer. From the total cell count and the viable-cell count, the rate of viable cells was calculated.

High Five cells [3] = conditions: MOI=0.5, day 4 supernatant; for improvement of the yield of the recombinant protein: relative to absence of calcium chloride
Description: A High Five cell culture solution in which cells were seeded at a seeding concentration of 1×10^6 cells/mL so as to satisfy a culture scale of 30 mL, was infected with a recombinant baculovirus prepared by integrating a gene sequence of a norovirus VP1 protein, at MOI=0.5. On Day 1 after the initiation of culture, calcium chloride was added so as to increase a final concentration by 2.5, 25, 250, 500 and 1 000 μM, and then, the cell culture was continued. On day 3, Benzonase (Merck) was added so as to be a final concentration of 50 U/mL and […] protease inhibitor tablets (Thermo Fisher Scientific) was added, and then, the cell culture was continued. On day 4, the culture supernatant was collected in the same manner as in Example 2 and subjected to Western Blotting.
For Western Blotting, after electrophoresis was carried out in the same manner as in Example 1, a transfer reaction was carried out from the gel to PVDF membrane (Merck) by a semi-dry transfer device (ATTO CORPORATION). After the transfer reaction, the PVDF membrane was soaked in a 10% skim milk-containing TBS and incubated at room temperature for two hours. After the PVDF membrane was washed three times with an appropriate amount of TBS and soaked in an anti-norovirus VP1 protein antibody (manufactured by the inventors) diluted with a 1% skim milk-containing TBST and incubated at 4° C. for from 18 to 20 hours. The PVDF membrane was washed five times with an appropriate amount of TBST, soaked in a HRP-labeled anti-mouse antibody (Jackson Immuno Research Laboratories) diluted with 1% skim milk-containing TBST, and incubated at room temperature for one hour. The PVDF membrane was washed five times with an appropriate amount of TBST and allowed to develop color with Western Lightning-Plus ECL (Perkin Elmer). The PVDF membrane was photographed by an image analyzer (Bio-Rad) and subjected to densitometric analysis.
Densitometric analysis was carried out in the same manner as in Example 1, and the relative amount of VP1 to the condition in the absence of calcium chloride was calculated.

Structure (SMILES): [Ca+2].[Cl-].[Cl-] [calcium chloride]
- VP1 band intensity (relative value) (High Five cells [1]; 25 μM calcium chloride added 0 hr after infection): 102%
- improvement of the yield of a protein of interest (High Five cells [1]; 25 μM calcium chloride added 24 hours after the initiation of culture, relative to absence of calcium chloride): about 108
- VP1 band intensity (relative value) (High Five cells [1]; 25 μM calcium chloride added 24 hr after infection): 111%
- VP1 band intensity (relative value) (High Five cells [1]; 25 μM calcium chloride added 48 hr after infection): 102%
- concentration of calcium chloride that is not cytotoxic (High Five cells [2]; High Five cells, day 3 to 5): ≤ 1000 µM
- viable cell rate (High Five cells [2]; calcium chloride final concentration increased by 1 mM, added 24 h after initiation of culture, day 3 to 5, versus calcium chloride-free control): the same as in the control
- viable cell rate (High Five cells [2]; calcium chloride final concentration increased by 10 mM, day 3): low
- viable cell rate (High Five cells [2]; calcium chloride final concentration increased by 100 mM, day 3): low
- improvement of the yield of the recombinant protein (High Five cells [3]; calcium chloride 25 μM added on Day 1): about 40%
- improvement of the yield of the recombinant protein (High Five cells [3]; calcium chloride 250 μM added on Day 1): about 40%
- yield of the recombinant protein (High Five cells [3]; calcium chloride 500 μM added on Day 1): seems to decrease
- yield of the recombinant protein (High Five cells [3]; calcium chloride 1 000 μM added on Day 1): seems to decrease
